US20230101743A1, “SUBSTITUTED TRIAZINE COMPOUNDS AND USES THEREOF” (MUSC FOUNDATION FOR RESEARCH DEVELOPMENT, priority 2020, published 2023)

Key:
APOB mRNA = APOB mRNA level by real-time qPCR; format: cell-based, human; conditions: 2 μg/mL, 24 hours
Description: G. Human iPSC-derived hepatocytes were treated with 2 μg/mL of DL-1 or equivalent concentration of DMSO for 24 hours. […] (A) APOB mRNA level was determined using real-time qPCR. (B) Intracellular APOB, LDLR, and HSP90 protein levels were determined via immunoblot. (C) Quantification of biological replicates of immunoblots on samples treated as in (B). Data are shown as mean±SEM of four replicates (n=4).
(§1) C. Human iPSC-derived hepatocytes (iPSC-Heps) were treated with 2 μg/mL of DL-1 or equivalent concentration of DMSO for 24 hours. In FIG. 7A, APOB mRNA level was determined using real-time qPCR. In FIG. 7B Intracellular APOB, LDLR, and HSP90 protein levels were determined via immunoblot; Quantification of biological replicates of immunoblots. Data are shown as mean±SD of four replicates (n=4). In FIG. 12A LDL uptake assay was performed by pre-treating cells with 2 μg/mL of DL-1, 20 μM of Atorvastatin, and equivalent concentration of DMSO for 24 hours followed by 4 hours of pHrodo-LDL exposure; LDL endocytosis was determined and quantified by fluorescence image; data are shown as mean±SD of triplicates (n=3). […]
Human iPSC-derived hepatocytes (Day 20) were treated with 2 μg/mL of DL-1 for 24 hours. […] Quantitative real-time PCR was performed on a BioRad CFX384 real-time PCR machine.

Intracellular APOB = Intracellular APOB accumulation (LDL uptake, pulse-chase, immunofluorescence); format: cell-based; conditions: human iPSC-derived hepatocytes
Description: as §1, with “(n=3). In FIG. 12B, iPSC-Heps were pre-treated with 3, 12, and 48 μg/mL of DL-9 for 2 hours, and cells were pulse-labeled with [^35S]methionine for 10 minutes and chased for 120 mins with or without DL-9 treatment; intracellular ^35S-APOB were determined by immunoprecipitation using anti-APOB antibody; band density was quantified and normalized with 5% of input (n=3).” for “(n=3).”
Immunoprecipitation of cell lysates was performed using protein G magnet beads (ThermoFisher) and anti-APOB (LDL20/17, Mabtech) antibodies. […] Expression levels were quantified via integrated intensity normalized by 5% of input of each sample. […] Signals were detected using HRP-conjugated secondary antibodies. […]

SMILES: Sc1nc(S)nc(Nc2ccc(Nc3ccccc3)cc2)n1 (racemic) [DL-1, 6-{[4-(phenylamino)phenyl]amino}-1,3,5-triazine-2,4-dithiol]
- APOB mRNA level (APOB mRNA): no impact on APOB mRNA and intracellular protein levels
- intracellular APOB accumulation (Intracellular APOB): induced intracellular APOB accumulation independently of mRNA expression and LDL uptake
